This note sets out measurements from US8101761B2, “(E)-N-{3-[1-(8-fluoro-11H-10-OXA-1-AZA-dibenzo [A,D] cyclohepten-5ylidene)-propyl]-phenyl}-methanesulfonamide as glucocorticoid receptor modulator for the treatment of rheumatoid arthritis” (Eli Lilly and Company, priority 2008, dated 2012).

Where only a bound is given, the exact number is not on record here.

The target in assay [1] is T1, human glucocorticoid receptor (GR) (Homo sapiens, UniProt P04150).
T1 construct: expressed in transfected cells; host or cells: HEK293, transient transfection, CMV promoter plasmid
T1 sequence (P04150 1-777): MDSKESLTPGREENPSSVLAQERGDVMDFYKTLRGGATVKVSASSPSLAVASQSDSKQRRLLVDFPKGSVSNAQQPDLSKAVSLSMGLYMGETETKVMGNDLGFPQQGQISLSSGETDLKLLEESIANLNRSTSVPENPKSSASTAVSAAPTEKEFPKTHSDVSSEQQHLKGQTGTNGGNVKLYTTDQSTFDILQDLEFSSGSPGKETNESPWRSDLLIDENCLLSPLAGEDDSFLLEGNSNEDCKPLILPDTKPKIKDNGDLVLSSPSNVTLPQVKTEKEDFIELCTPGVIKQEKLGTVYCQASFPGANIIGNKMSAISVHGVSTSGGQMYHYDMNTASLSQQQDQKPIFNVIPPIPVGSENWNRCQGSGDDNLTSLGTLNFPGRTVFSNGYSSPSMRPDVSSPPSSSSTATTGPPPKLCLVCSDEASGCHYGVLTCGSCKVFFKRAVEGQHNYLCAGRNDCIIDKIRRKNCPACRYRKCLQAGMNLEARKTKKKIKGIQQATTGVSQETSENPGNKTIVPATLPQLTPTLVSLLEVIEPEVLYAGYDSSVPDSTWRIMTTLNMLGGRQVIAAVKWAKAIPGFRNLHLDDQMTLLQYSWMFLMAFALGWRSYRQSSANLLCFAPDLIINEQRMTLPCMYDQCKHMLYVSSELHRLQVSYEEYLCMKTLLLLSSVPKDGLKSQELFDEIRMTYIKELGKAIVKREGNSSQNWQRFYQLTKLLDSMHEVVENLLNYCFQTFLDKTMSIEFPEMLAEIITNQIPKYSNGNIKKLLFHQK
Briefly: Nuclear hormone receptor functional modulation assay (GRE-luciferase reporter, HEK293), GR. The assay is classed as cell-based. Conditions: agonist mode, mean of n=4 or 5. An excerpt: The solvents, reagents, and ligands employed in the functional assay are readily available from commercial sources, or can be prepared by one of ordinary skill in the art.
Human embryonic kidney HEK293 cells are transfected with steroid hormone receptor and reporter gene plasmids using Fugene™ transfection reagent. Briefly, the reporter plasmid containing two copies of probasin ARE and TK(thymidine kinase) promoter upstream of the luciferase reporter cDNA, is transfected into HEK293 cells with a plasmid constitutively expressing human androgen receptor (AR) using viral CMV(cytomegalovirus) promoter. The reporter plasmid containing two copies of GRE and TK promoter upstream of the luciferase reporter cDNA is transfected with a plasmid constitutively expressing either human glucocorticoid receptor (GR), human mineralocorticoid receptor (MR), or human progesterone receptor (PR) using viral CMV promoter. […] After 24-hours incubation with test compounds, cells are lysed and luciferase activity is determined using standard techniques.
Data are fitted to a four parameter-fit logistic curve fit to determine EC50 values. […] IC50 values may be determined similarly using antagonist mode assay data. Percent inhibitions may also be determined relative to the response in the presence of agonist alone, as described above.

Assay [2] deals with T2, human GR (glucocorticoid receptor) (Homo sapiens, UniProt P04150).
T2 construct: expressed in transfected cells; host or cells: HEK293 (293-GR lysate)
T2 sequence (P04150 1-777): T1 sequence (P04150 1-777)
Briefly: Nuclear hormone receptor competition binding assay, GR. How it is done: Cell lysates from human embryonic kidney HEK293 cells overexpressing human GR (glucocorticoid receptor), AR (androgen receptor), MR (mineralocorticoid receptor), or PR (progesterone receptor) are used for receptor-ligand competition binding assays to determine Ki values.
Briefly, steroid receptor competition binding assays are run in a buffer containing 20 mM Hepes buffer (pH=7.6), 0.2 mM EDTA, 75 mM NaCl, 1.5 mM MgCl2, 20% glycerol, 20 mM sodium molybdate, 0.2 mM DTT (dithiothreitol), 20 μg/ml aprotinin and 20 μg/ml leupeptin. Typically, steroid receptor binding assays include radio-labeled ligands, such as 0.3 nM [^3H]-dexamethasone for GR binding, 0.36 nM [^3H]-methyltrienolone for AR binding, 0.25 nM [^3H]-aldosterone for MR binding, and 0.29 nM [^3H]-methyltrienolone for PR binding, and either 20 μg 293-GR lysate, 22 μg 293-AR lysate, 20 μg 293-MR lysate or 40 μg 293-PR lysate per well. Assays are typically run in 96-well format. Competing test compounds are added at various concentrations ranging from about 0.01 nM to 10 μM. Non-specific binding is determined in the presence of 500 nM dexamethasone for GR binding, 500 nM aldosterone for MR binding, or 500 nM methyltrienolone for AR and PR binding. […] After an incubation of 2 hours, plates are read in a Wallac Microbeta counter. […]

The term EC50 denotes the concentration at which the effect is half-maximal. Broadly, the Ki is the dissociation constant of the complex between target and ligand, obtained from inhibition or displacement. Lower therefore signals higher affinity. Take `CC/C(=C1\c2ccc(F)cc2OCc2ncccc21)c1cccc(NS(C)(=O)=O)c1` [Compound (I), (E)-N-{3-[1-(8-Fluoro-11H-10-oxa-1-aza-dibenzo[a,d]cyclohepten-5-ylidene)-propyl]-phenyl}-methanesulfonamide]: the “efficacy in activating transcription, GR” value in assay [1] (relative to 100 nM dexamethasone) is listed as “about 44%”. Further, the EC50 in assay [1] (read-out: EC50 in activating transcription, GR) is roughly 1.8 nM. This molecule also had a Ki in assay [2] (HEK293 lysate overexpressing human GR, [3H]-dexamethasone, mean of n=7) of roughly 0.2 nM. In addition, in assay [2] (ratio of binding affinities), the “greater affinity for GR relative to each of human MR, AR, and PR” value is on record as no less than 15 fold.
